Consider 21 molecules from US20230286968A1, “ARYLOXAZOLO SPIRAL RING DERIVATIVES FOR THE TREATMENT AND PROPHYLAXIS OF HEPATITIS B VIRUS INFECTION” (Hoffmann-La Roche Inc., priority 2020, published 2023).

SMILES strings stand for the structures. Read-outs that look alike come from different tables or passages of the source.

In one series the test system is HBsAg. Kind of series: PHH natural infection assay, HBsAg (alphalisa). The format is cell-based, HBV. On the procedure: (§1) Detailed procedures regarding primary human hepatocyte (PHH) HBV natural infection assay are described as below. One tube of frozen PHH (10 million cells) is thawed in 37° C. water bath and then transferred to 20 mL of PHH thawing medium (Sigma, InVitroGRO HT Medium, Cat. S03319) with gently mixing. The cells were then centrifuged at […] for 5 min, the supernatant was discarded and the tube was refilled with 25 mL of PHH plating medium (Sigma, InVitroGRO CP Medium, Cat. S03317). The tube was shaken very gently to re-suspend all cells, and then 50 μL of cells were transferred to each well 384-well collagen I coated plate with appropriate liquid handling equipment, e.g. Integra VIAFLO384 or Agilent Bravo. The cells were then cultured for 24 hours in a cell incubator. For HBV infection, after PHH attachment on the culture plate, the plating medium was removed and replenished with PHH culture medium containing HBV virus. The PHH culture medium was prepared with Dulbecco's Modified Eagle Medium (DMEM)/F12 (1:1 in volume ratio) containing 10% fetal bovine serum (Gibco, Cat. 10099141), 5 ng/mL human epidermal growth factor (Gibco, Cat.PHG0311L), 20 ng/mL dexamethasone (Sigma, Cat.D4902-100 mg), 250 ng/mL human recombinant insulin (Gibco, Cat.41400045) and 100 U/mL penicillin. HBV virus at 200 genome equivalent (GE) per cell with 4% PEG8000 (Sigma, Cat.P1458) containing culture medium were added to the PHH culture medium for infection. The cells were then cultured for 24 hours in cell incubator. Then the cell culture supernatant was removed. The HBV-infected PHH were cultured with sandwich culture method with PHH culture medium containing […] and 0.25 mg/mL matrix gel for 72 hours. The supernatant was then refreshed with PHH culture medium containing different concentrations of testing compounds for two times with 72-hour interval. At the end of treatment, the supernatant was collected for viral markers measurements, including HBsAg, HBeAg, HBV DNA and cytotoxicity. HBsAg and HBeAg were detected using alphalisa method using their specific antibodies. For HBV DNA detection, HBV DNA Quantitative Fluorescence Diagnostic Kit (Sansure Biotech Inc.) was used following the manufacture's protocol. Cytotoxicity was determined using Cell Counting Kit-8 (CCK8, Dojindo Molecular Technologies, Inc.).
(§2) The compounds of the present invention were tested for their capacity to inhibit HBsAg and HBeAg as described herein.
Background: Alpha assays give light when donor and acceptor beads are brought close together.

Another series concerns HBeAg. As to the kind of experiment: PHH natural infection assay, HBeAg (alphalisa). It counts as cell-based, HBV. The protocol: as §1, §2
The nature of series [1]: Cytotoxicity in PHH natural infection assay (Cell Counting Kit-8). It counts as cell-based. Particulars: HBV-infected primary human hepatocytes, CCK8. On the procedure:
as §1
For orientation: Formazan colour is commonly taken as a measure of viable cells.

Where [2] appears, read: read-out: HBsAg IC50, HBV-infected primary human hepatocytes, supernatant, alphalisa.
[3] abbreviates: read-out: HBeAg IC50, HBV-infected primary human hepatocytes, supernatant, alphalisa.
Where [4] appears, read: Hepatitis B virus, Hepatocyte, read-out: HBsAg IC50, HBV-infected primary human hepatocytes, supernatant, alphalisa.
[5] abbreviates: Hepatitis B virus, Hepatocyte, read-out: HBeAg IC50, HBV-infected primary human hepatocytes, supernatant, alphalisa.

As usually defined, the IC50 is the concentration needed to halve the response being measured. For orientation: CC50 means the concentration giving 50% cytotoxicity. A higher CC50 goes with better tolerance by the cells. As for `[H][C@]1(NC(=O)C2CCS(=O)(=O)CC2)C[C@]2(C1)C[C@]([H])(c1nc3cc(Cl)ccc3o1)C2` (single isomer, unassigned) [Example 82a, (Ra)—N-[6-(5-chloro-1,3-benzoxazol-2-yl)spiro[3.3]heptan-2-yl]-1,1-dioxo-thiane-4-carboxamide], the half-maximal inhibitory concentration (IC50) in the series with HBsAg (setting [2]) was found to be 6.57 µM; in the series with HBeAg (setting [3]), 5.13 µM. Also, in series [1], the CC50 at 144 h is over 100 µM.
For `[H][C@]1(NC(=O)C2CCS(=O)(=O)CC2)C[C@@]2(C1)C[C@]([H])(c1nc3cc(Cl)ccc3o1)C2` (single isomer, unassigned) [Example 82b, (Sa)—N-[6-(5-chloro-1,3-benzoxazol-2-yl)spiro[3.3]heptan-2-yl]-1,1-dioxo-thiane-4-carboxamide] the same measures were 2.04 µM, 1.47 µM and over 100 µM.
Take `[H][C@]1(NC(=O)c2ccnc(S(=O)(=O)C3CC3)c2)C[C@]2(C1)C[C@]([H])(c1nc3cc(Cl)ccc3o1)C2` (single isomer, unassigned) [Example 84a, (Ra)—N-[6-(5-chloro-1,3-benzoxazol-2-yl)spiro[3.3]heptan-2-yl]-2-cyclopropylsulfonyl-pyridine-4-carboxamide]: the IC50 in the series on HBsAg (setting [2]) worked out at 0.07 µM; in the series with HBeAg (setting [3]), 0.13 µM. In series [1], this molecule came in with a CC50 at 144 h of 84.3 µM.
For `[H][C@]1(NC(=O)c2ccnc(S(=O)(=O)C3CC3)c2)C[C@@]2(C1)C[C@]([H])(c1nc3cc(Cl)ccc3o1)C2` (single isomer, unassigned) [Example 84b, (Sa)—N-[6-(5-chloro-1,3-benzoxazol-2-yl)spiro[3.3]heptan-2-yl]-2-cyclopropylsulfonyl-pyridine-4-carboxamide] the same measures were 1.9 µM, 1.61 µM and over 10 µM.
For `[H][C@]1(NC(=O)c2ccnc(S(C)(=O)=O)c2)C[C@]2(C1)C[C@]([H])(c1nc3cc(Cl)ccc3o1)C2` (single isomer, unassigned) [Example 87-a, (Ra)—N-[6-(5-chloro-1,3-benzoxazol-2-yl)spiro[3.3]heptan-2-yl]-2-methylsulfonyl-pyridine-4-carboxamide] the same measures were 0.2 µM, 0.22 µM and over 10 µM.
For `[H][C@]1(NC(=O)c2ccnc(S(C)(=O)=O)c2)C[C@@]2(C1)C[C@]([H])(c1nc3cc(Cl)ccc3o1)C2` (single isomer, unassigned) [Example 87-b, (Sa)—N-[6-(5-chloro-1,3-benzoxazol-2-yl)spiro[3.3]heptan-2-yl]-2-methylsulfonyl-pyridine-4-carboxamide], the IC50 in the series on HBsAg (setting [2]) worked out at 3.68 µM; in the series with HBeAg (setting [3]) it was 3.29 µM. Besides, the CC50 at 144 h in series [1] is over 10 µM.
Take `[H][C@@]1(C(=O)N[C@]2([H])C[C@@]3(C2)C[C@@]([H])(c2nc4cc(Cl)ccc4o2)C3)CC(=O)N(C)C1` (single isomer, unassigned) [Example 94c]: the IC50 in the series with HBsAg (setting [4]) amounted to 1.24 µM; in the series with HBeAg (setting [5]), 0.61 µM. For the same molecule, the half-maximal cytotoxic concentration (CC50) at 144 h in series [1] is over 100 µM.
For `[H][C@]1(C(=O)N[C@]2([H])C[C@@]3(C2)C[C@@]([H])(c2nc4cc(Cl)ccc4o2)C3)CC(=O)N(C)C1` (single isomer, unassigned) [Example 94d] the same measures were 2.57 µM, 1.46 µM and over 100 µM.
For the molecule `O=C(NC1CC2(C1)CC(c1nc3cc(Cl)ccc3o1)C2)c1ccccn1` (stereo not drawn) [Example 1, N-[6-(5-chloro-1,3-benzoxazol-2-yl)spiro[3.3]heptan-2-yl]pyridine-2-carboxamide], the IC50 in the series with HBsAg (setting [4]) came out at 9.75 µM; with HBeAg (setting [5]) it was 7.89 µM. Besides, half-maximal cytotoxicity in series [1] (CC50 at 144 h) was put at 74.8 µM.
For `O=C(NC1CC2(C1)CC(c1nc3cc(Cl)ccc3o1)C2)c1cccnc1` (stereo not drawn) [Example 2, N-[6-(5-chloro-1,3-benzoxazol-2-yl)spiro[3.3]heptan-2-yl]pyridine-3-carboxamide] the same measures were 6.2 µM, 5.25 µM and 68.3 µM.
For `O=C(NC1CC2(C1)CC(c1nc3cc(Cl)ccc3o1)C2)c1ccncc1` (stereo not drawn) [Example 3, N-[6-(5-chloro-1,3-benzoxazol-2-yl)spiro[3.3]heptan-2-yl]pyridine-4-carboxamide] the same measures were 8.19 µM, 4.39 µM and over 100 µM.
Regarding `Cc1cc(C(=O)NC2CC3(C2)CC(c2nc4cc(Cl)ccc4o2)C3)ccn1` (stereo not drawn) [Example 4, N-[6-(5-chloro-1,3-benzoxazol-2-yl)spiro[3.3]heptan-2-yl]-2-methyl-pyridine-4-carboxamide], the figures for the IC50 in the series on HBsAg (setting [4]) and with HBeAg (setting [5]) were 5.51 µM and 4.59 µM, respectively. Moreover, the CC50 at 144 h in series [1] was over 10 µM.
For `O=C(NC1CC2(C1)CC(c1nc3cc(Cl)ccc3o1)C2)c1ccnc(NC2COC2)c1` (stereo not drawn) [Example 5, N-[6-(5-chloro-1,3-benzoxazol-2-yl)spiro[3.3]heptan-2-yl]-2-(oxetan-3-ylamino)pyridine-4-carboxamide] the same measures were 7.19 µM, 5.42 µM and over 10 µM.
As for `CCN(CC)c1cc(C(=O)NC2CC3(C2)CC(c2nc4cc(Cl)ccc4o2)C3)ccn1` (stereo not drawn) [Example 6, N-[6-(5-chloro-1,3-benzoxazol-2-yl)spiro[3.3]heptan-2-yl]-2-(diethylamino)pyridine-4-carboxamide], the IC50 is 6.56 µM in the series with HBsAg (setting [4]) and 4.87 µM in the series on HBeAg (setting [5]). This molecule had a CC50 at 144 h in series [1] of over 10 µM.
In the case of `CCN(C)c1cc(C(=O)NC2CC3(C2)CC(c2nc4cc(Cl)ccc4o2)C3)ccn1` (stereo not drawn) [Example 7, N-[6-(5-chloro-1,3-benzoxazol-2-yl)spiro[3.3]heptan-2-yl]-2-[ethyl(methyl)amino]pyridine-4-carboxamide], the values for the IC50 in the series with HBsAg (setting [4]) and with HBeAg (setting [5]) were 4.19 µM and 4.34 µM, respectively. For the same molecule, in series [1], the CC50 at 144 h was over 10 µM.
As for `O=C(NC1CC2(C1)CC(c1nc3cc(Cl)ccc3o1)C2)c1ccnc(N2CCCCC2)c1` (stereo not drawn) [Example 8, N-[6-(5-chloro-1,3-benzoxazol-2-yl)spiro[3.3]heptan-2-yl]-2-(1-piperidyl)pyridine-4-carboxamide], the IC50 in the series on HBsAg (setting [4]) was found to be 4.73 µM; in the series on HBeAg (setting [5]), 4.05 µM. Also, the half-maximal cytotoxic concentration (CC50) at 144 h in series [1] is over 10 µM.
For `O=C(NC1CC2(C1)CC(c1nc3cc(Cl)ccc3o1)C2)c1ccnc(N2CCOCC2)c1` (stereo not drawn) [Example 9, N-[6-(5-chloro-1,3-benzoxazol-2-yl)spiro[3.3]heptan-2-yl]-2-morpholino-pyridine-4-carboxamide] the same measures were 3.83 µM, 4.37 µM and over 10 µM.
In the case of `O=C(NC1CC2(C1)CC(c1nc3cc(Cl)ccc3o1)C2)c1ccnc(NC2CC2)c1` (stereo not drawn) [Example 10, N-[6-(5-chloro-1,3-benzoxazol-2-yl)spiro[3.3]heptan-2-yl]-2-(cyclopropylamino)pyridine-4-carboxamide], the figures for the IC50 in the series with HBsAg (setting [4]) and in the series on HBeAg (setting [5]) were 3.77 µM and 3.92 µM, respectively. In series [1], this molecule yielded a CC50 at 144 h of over 10 µM.
For `CN(C)c1cc(C(=O)NC2CC3(C2)CC(c2nc4cc(Cl)ccc4o2)C3)ccn1` (stereo not drawn) [Example 11, N-[6-(5-chloro-1,3-benzoxazol-2-yl)spiro[3.3]heptan-2-yl]-2-(dimethylamino)pyridine-4-carboxamide] the same measures were 2.85 µM, 2.67 µM and over 100 µM.
For `CC(C)N(C)c1cc(C(=O)NC2CC3(C2)CC(c2nc4cc(Cl)ccc4o2)C3)ccn1` (stereo not drawn) [Example 12, N-[6-(5-chloro-1,3-benzoxazol-2-yl)spiro[3.3]heptan-2-yl]-2-[isopropyl(methyl)amino]pyridine-4-carboxamide] the same measures were 2.03 µM, 1.55 µM and over 10 µM.
For `O=C(NC1CC2(C1)CC(c1nc3cc(Cl)ccc3o1)C2)c1ccnc(N2CCCC2=O)c1` (stereo not drawn) [Example 13, N-[6-(5-chloro-1,3-benzoxazol-2-yl)spiro[3.3]heptan-2-yl]-2-(2-oxopyrrolidin-1-yl)pyridine-4-carboxamide] the same measures were 3.75 µM, 3.94 µM and over 10 µM.
